Data from ChEMBL document CHEMBL1151312, “A concise conversion of (-)-sclareol into (+)-coronarin E and (-)-7-epi-coronarin A” (J Nat Prod, 1998).
In brackets after ≈: the same amount, converted by molar mass.

Tested on: V79
Test: Cytotoxicity against Chinese hamster V79 cells
Format: cell-based
Conditions: Cricetulus griseus

SMILES: C=C1[C@@H](O)C[C@H]2C(C)(C)CCC[C@]2(C)[C@H]1/C=C/c1ccoc1 [CORONARIN A]
- IC50: 1.65 µg/mL (≈ 5.49 µM)
